Earlier results as cited in patent US20050079205A1, “Oleamide-containing composition for animal consumption” (priority 2003, published 2005).

How the values were obtained:
lactating Jersey cows = conditions: feed supplemented with up to 3.5% oleamide; cited from earlier work
Holstein cows = conditions: 4.2% oleamide through feed or ruminal cannula; cited from earlier work

CCCCCCCC/C=C\CCCCCCCC(N)=O [oleamide, cis-9-octadecenioamide]
dry matter intake (lactating Jersey cows): reduction in dry matter intake | dry matter intake (Holstein cows): reduction in dry matter intake
